Data on 13 compounds can be found in patent US6469028B1, “Synthesis and use of retinoid compounds having negative hormone and/or anatgonist activities” (Allergan, Inc., priority 1995, dated 2002).

SMILES strings stand for the structures.

For one test, the target named is T1, RARγ (Homo sapiens, UniProt P13631).
T1 sequence (P13631 1-454): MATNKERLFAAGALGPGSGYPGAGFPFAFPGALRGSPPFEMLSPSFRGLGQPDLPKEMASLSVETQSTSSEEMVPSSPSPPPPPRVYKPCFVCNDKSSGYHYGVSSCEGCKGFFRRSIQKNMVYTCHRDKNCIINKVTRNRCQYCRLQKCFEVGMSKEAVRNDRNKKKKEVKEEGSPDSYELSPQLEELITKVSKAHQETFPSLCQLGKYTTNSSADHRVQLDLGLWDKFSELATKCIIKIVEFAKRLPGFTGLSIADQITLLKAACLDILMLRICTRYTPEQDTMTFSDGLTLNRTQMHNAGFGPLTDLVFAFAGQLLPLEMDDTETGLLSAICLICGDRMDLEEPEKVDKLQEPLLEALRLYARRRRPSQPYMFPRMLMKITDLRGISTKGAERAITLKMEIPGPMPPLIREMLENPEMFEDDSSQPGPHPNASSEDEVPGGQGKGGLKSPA
Nature of the test: Ligand binding assay. On the set-up: expressed in transfected cells; host or cells: CV1 cells. To be noted: read-out: Kd (nanomolar) RARγ. From the text: A holoreceptor transactivation assay and a ligand binding assay which measure the antagonist/agonist like activity of the compounds of the invention, or their ability to bind to the several retinoid receptor subtypes, respectively, are described in published PCT Application No. WO93/11755 (particularly on pages 30-33 and 37-41) published on Jun. 24, 1993, the specification of which is also incorporated herein by reference. A description of the holoreceptor transactivation assay is also provided below.
CV1 cells (5,000 cells/well) were transfected with an RAR reporter plasmid MTV-TREp-LUC (50 ng) along with one of the RAR expression vectors (10 ng) in an automated 96-well format by the calcium phosphate procedure of Heyman et al. Cell 68: 397-406. For RXR-α and RXR-γ transactivation assays, an RXR-responsive reporter plasmid CRBPII-tk-LUC (50 ng) along with the appropriate RXR expression vectors (10 ng) was used substantially as described by Heyman et al. above, and Allegretto et al. J. Biol. Chem. 268: 26625-26633. For RXR-β transactivation assays, an RXR-responsive reporter plasmid CPRE-tk-LUC ([…]) along with RXR-β expression vector ([…]) was used as described in above. These reporters contain DRI elements from human CRBPII and certain DRI elements from promotor, respectively (see Mangelsdorf et al. The Retinoids: Biology Chemistry and Medicine, pp. 319-349, Raven Press Ltd., New York and Heyman et al., cited above). A β-galactosidase (50 ng) expression vector was used as an internal control in the transfections to normalize for variations in transfection efficiency. The cells were transfected in triplicate for 6 hours, followed by incubation with retinoids for 36 hours, and the extracts were assayed for luciferase and […] activities. The detailed experimental procedure for holoreceptor transactivations has been described in Heyman et al. above, and Allegretto et al. cited above. The results obtained in this assay are expressed in EC50 numbers, as they are also in the chimeric receptor transactivation assay. The Heyman et al. Cell 68: 397-406, Allegretto et al. J. Biol. Chem. 268: 26625-26633, and Mangelsdorf et al. The Retinoids: Biology, Chemistry, and Medicine, pp. 319-349, Raven Press Ltd., New York, are expressly incorporated herein by reference. The results of ligand binding assay are expressed in Kd numbers. (See Cheng et al. Biochemical Pharmacology 22: 3099-3108, expressly incorporated herein by reference.) […]

In another test the test system is RXRβ. Briefly: Holoreceptor transactivation assay. Type of test: cell-based. To be noted: relative to all trans retinoic acid.
A further test deals with T2, RXRγ (Mus musculus, UniProt P28705).
T2 construct: expressed in transfected cells; host or cells: CV1 cells
T2 sequence (P28705 1-463): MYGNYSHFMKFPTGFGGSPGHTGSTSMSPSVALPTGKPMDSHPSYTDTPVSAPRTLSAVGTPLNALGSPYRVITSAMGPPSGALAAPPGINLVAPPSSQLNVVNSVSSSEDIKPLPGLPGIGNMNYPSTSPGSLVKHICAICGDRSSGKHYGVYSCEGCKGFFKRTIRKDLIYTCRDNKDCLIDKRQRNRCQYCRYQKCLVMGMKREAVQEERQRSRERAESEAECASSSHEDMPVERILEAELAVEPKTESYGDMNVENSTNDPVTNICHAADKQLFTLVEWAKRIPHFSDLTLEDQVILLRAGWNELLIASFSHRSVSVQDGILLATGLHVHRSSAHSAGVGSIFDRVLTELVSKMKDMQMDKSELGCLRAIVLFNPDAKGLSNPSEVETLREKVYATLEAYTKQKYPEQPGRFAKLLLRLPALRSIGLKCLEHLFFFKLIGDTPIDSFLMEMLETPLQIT
Briefly: Holoreceptor transactivation assay. Format: cell-based. Particulars: relative to all trans retinoic acid; read-out: Transactivation Assay Efficacy (% of RA activity) RXRγ.

For the compound `Cc1cnc(C2=CCC(C)(C)c3ccc(C#Cc4ccc(C(=O)O)cc4)cc32)s1` [Compound 30, 4-[(5,6-Dihydro-5,5-dimethyl-8-(5-methylthiazol-2-yl)-2-naphthalenyl)ethynyl]benzoic acid], the equilibrium dissociation constant (Kd) at RARγ is 219 nM. Besides, the “Transactivation Assay Efficacy (% of RA activity) RXRβ” value in the test with RXRβ was 9.00 % of RA activity. Besides, on RXRγ, the Emax stood at 3%.

`Cc1ccc(C2=CCC(C)(C)c3ccc(N=Nc4ccc(C(=O)O)cc4)cc32)cc1` [Compound 46b, 4-[(5,6-dihydro-5,5-dimethyl-8-(4-methylphenyl)-2-naphthalenyl)azo]-benzoic acid]: the Kd on RARγ was 5.8 nM. For the same compound, in the test with RXRβ, the “Transactivation Assay Efficacy (% of RA activity) RXRβ” value is on record as 0.00 % of RA activity. In addition, the Emax on RXRγ was determined as 4%.

Regarding `CC1(C)CC=C(c2cccnc2)c2cc(C#Cc3ccc(C(=O)O)cc3)ccc21` [Compound 26, 4-[(5,6-Dihydro-5,5-dimethyl-8-(3-pyridyl)-2-naphthalenyl)ethynyl]benzoic acid], the Kd on RARγ was determined as 36 nM. In the test with RXRβ, the “Transactivation Assay Efficacy (% of RA activity) RXRβ” value was 0.00 % of RA activity. The Emax at RXRγ is 3%.

For `Cc1ccc(C2=CCC(C)(C)c3ccc(C(=O)Oc4ccc(C(=O)O)cc4)cc32)cc1` [Compound 39, 4-[[(5,6-Dihydro-5,5-dimethyl-8-(4-methylphenyl)-2-naphthalenyl)carbonyl]oxy]-benzoic acid], the Kd at RARγ is 113 nM. Moreover, the “Transactivation Assay Efficacy (% of RA activity) RXRβ” value with RXRβ is given as 0.00 % of RA activity. Further, the Emax on RXRγ worked out at 1%.

With `CC1(C)CC=C(c2ccc(C(F)(F)F)cc2)c2cc(C#Cc3ccc(C(=O)O)cc3)ccc21` [Compound 23, 4-[(5,6-Dihydro-5,5-dimethyl-8-(4-trifluoromethylphenyl)-2-naphthalenyl)ethynyl]benzoic acid], the Kd at RARγ was found to be 31 nM. For the same compound, the “Transactivation Assay Efficacy (% of RA activity) RXRβ” value in the test on RXRβ is on record as 0.00 % of RA activity. Besides, the Emax at RXRγ turned out to be 4%.

On to `Cc1ccc(C2=CCC(C)(C)c3ccc(C(=O)Nc4ccc(C(=O)O)c(F)c4)cc32)cc1` [Compound 41, 2-Fluoro-4-[[(5,6-dihydro-5,5-dimethyl-8-(4methylphenyl)-2-naphthalenyl)carbonyl]amino]-benzoic acid], for which the Kd on RARγ was 725 nM. Further, the “Transactivation Assay Efficacy (% of RA activity) RXRβ” value in the test on RXRβ was 0.00 % of RA activity. The Emax on RXRγ amounted to 3%.

For `Cc1cc(C)cc(C2=CCC(C)(C)c3ccc(C#Cc4ccc(C(=O)O)cc4)cc32)c1` [Compound 24, 4-[(5 6-Dihydro-5,5-dimethyl-8-(3,5-dimethylphenyl)-2-naphthalenyl)ethynyl]benzoic acid], the Kd at RARγ was 286 nM. Besides, the “Transactivation Assay Efficacy (% of RA activity) RXRβ” value with RXRβ is 0.00 % of RA activity. In addition, the Emax on RXRγ was determined as 3%.

`Cc1csc(C2=CCC(C)(C)c3ccc(C#Cc4ccc(C(=O)O)cc4)cc32)n1` [Compound 31, 4-[(5,6-Dihydro-5,5-dimethyl-8-(4-methylthiazol-2-yl)-2-naphthalenyl)ethynyl]benzoic acid]: the dissociation constant (Kd) on RARγ turned out to be 100 nM. In the test on RXRβ, the “Transactivation Assay Efficacy (% of RA activity) RXRβ” value is recorded as 8.00 % of RA activity. In addition, the Emax on RXRγ amounted to 6%.

With `Cc1nc(C2=CCC(C)(C)c3ccc(C#Cc4ccc(C(=O)O)cc4)cc32)sc1C` [Compound 32], the dissociation constant Kd on RARγ was determined as 169 nM. For the same compound, the “Transactivation Assay Efficacy (% of RA activity) RXRβ” value with RXRβ is recorded as 0.00 % of RA activity. For the same compound, the Emax on RXRγ came out at 2%.

As for `CC1(C)CC=C(c2ccccc2)c2ccc(C(=O)C=Cc3ccc(C(=O)O)cc3)cc21` [Compound 103, 4-[3-oxo-3-(7,8-dihydro-5-phenyl-8,8-dimethyl-2-naphthalenyl)-1-propenyl]-benzoic acid], the dissociation constant Kd at RARγ is 261 nM. In addition, the “Transactivation Assay Efficacy (% of RA activity) RXRβ” value in the test on RXRβ was 0.0 % of RA activity. Moreover, the Emax at RXRγ turned out to be 2%.

Regarding `Cc1ccc(C2=CCC(C)(C)c3ccc(C#Cc4ccc(C(=O)O)cc4)cc32)cc1` [Compound 60, 4-[(5,6-dihydro-5,5-dimethyl-8-(4-methylphenyl)-2-naphthalenyl)ethynyl]benzoic acid], the Kd on RARγ came out at 3.3 nM. Moreover, the “Transactivation Assay Efficacy (% of RA activity) RXRβ” value with RXRβ is on record as 0.00 % of RA activity. Besides, the Emax at RXRγ amounted to 3%.

Regarding `Cc1ccc(C2=CCC(C)(C)c3ccc(C#Cc4ccc(C(=O)O)cc4)cc32)s1` [Compound 34, 4-[(5,6-Dihydro-5,5-dimethyl-8-(5-methyl-2-thienyl)-2-naphthalenyl)ethynyl]benzoic acid], the Kd at RARγ stood at 17 nM. In addition, the “Transactivation Assay Efficacy (% of RA activity) RXRβ” value in the test with RXRβ is 0.00 % of RA activity. At RXRγ, the Emax stood at 3%.

Regarding `Cc1ccccc1C1=CCC(C)(C)c2ccc(C#Cc3ccc(C(=O)O)cc3)cc21` [Compound 27, 4-[(5,6-Dihydro-5,5-dimethyl-8-(2-methylphenyl)-2-naphthalenyl)ethynyl]benzoic acid], the Kd on RARγ is 26 nM. Also, the “Transactivation Assay Efficacy (% of RA activity) RXRβ” value in the test on RXRβ is reported as 0.00 % of RA activity. Besides, the Emax on RXRγ worked out at 4%.
